Patent US7868006B2, “Heterocyclic substituted piperazines with CXCR3 antagonist activity” (Schering Corporation, priority 2005, dated 2011)
Like-named read-outs stand apart in the source and are kept apart here.

Target: T1, human CXCR3 (N-delta 4) (Homo sapiens, UniProt P49682)
T1 construct: CD8 leader (N); Flag tag (N); expressed in transfected cells; host or cells: mouse pro-B Ba/F3 cells, stably transfected with pME18Sneo-hCXCR3 (N-delta 4); membrane preparation
T1 sequence (P49682 5-368 limits assumed): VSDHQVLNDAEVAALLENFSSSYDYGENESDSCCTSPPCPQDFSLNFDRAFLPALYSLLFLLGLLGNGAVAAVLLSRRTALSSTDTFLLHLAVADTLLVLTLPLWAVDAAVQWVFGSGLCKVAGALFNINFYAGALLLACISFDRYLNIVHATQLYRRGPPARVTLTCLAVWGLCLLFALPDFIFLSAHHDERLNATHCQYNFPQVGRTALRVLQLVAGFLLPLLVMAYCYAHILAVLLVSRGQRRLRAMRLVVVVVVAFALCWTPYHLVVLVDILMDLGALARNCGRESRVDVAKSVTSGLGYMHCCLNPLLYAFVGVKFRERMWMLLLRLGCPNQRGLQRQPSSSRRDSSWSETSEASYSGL
Experiment: Human CXCR3 (N-delta 4) Scintillation Proximity Assay (SPA), [125I] IP-10 binding
Settings: Ba/F3-hCXCR3 (N-delta 4) membranes, 25 pM [125I] IP-10
From the text: The inventive compounds can readily be evaluated to determine activity at The CXCR3 receptors by known methods, such as, for example, Development of Human CXCR3 (N-delta 4) Binding Assay.
Cloning and Expression of Human CXCR3 (N-delta 4):
The DNA encoding human CXCR3 was cloned by PCR using human genomic DNA (Promega, Madison, Wis.) as a template. The PCR primers were designed based on the published sequence of human orphan receptor GPR9 (1) with incorporated restriction sites, a Kozak consensus sequence, CD8 leader and Flag tag. The PCR product was subcloned into the mammalian expression vector pME18Sneo, a derivative of the SR-alpha expression vector (designated as pME18Sneo-hCXCR3 (N-delta 4).
IL-3-dependent mouse pro-B cells Ba/F3 were transfected by electroporation in 0.4 ml Dulbecco's PBS containing 4×10^6 cells with 20 μg of pME18Sneo-hCXCR3 (N-delta 4) plasmid DNA. Cells were pulsed at 400 Volts, 100 OHMs, 960 μFd. The transfected cells were under selection with 1 mg/ml G418 (Life Technologies, Gaithersburg, Md.). G418-resistant Ba/F3 clones were screened for CXCR3 expression by specific binding of [^125I] IP-10 (NEN Life Science Products, Boston, Mass.).
Preparation of Ba/F3-hCXCR3 (N-delta 4) Membranes:
Ba/F3 cells expressing human CXCR3 (N-delta 4) were pelleted and resuspended in the lysis buffer containing 10 mM HEPES, pH 7.5 and Complete® protease inhibitors (1 tablet per 100 ml) (Boehringer Mannheim, Indianapolis, Ind.) at a cell density of 20×10^6 cells per ml. After 5 minutes incubation on ice, cells were transferred to 4639 cell disruption bomb (Parr Instrument, Moline, Ill.) and applied with 1,500 psi of nitrogen for 30 minutes on ice. Large cellular debris was removed by centrifugation at 1,000×g. Cell membrane in the supernatant was sedimented at 100,000×g. The membrane was resuspended in the lysis buffer supplemented with 10% sucrose and stored at −80° C. Total protein concentration of the membrane was determined by BCA method from Pierce (Rockford, Ill.).
Human CXCR3 (N-delta 4) Scintillation Proximity Assay (SPA):
For each assay point, 2 μg of membrane was preincubated for 1 hr with 300 μg wheat germ agglutinin (WGA) coated SPA beads (Amersham, Arlington Heights, Ill.) in the binding buffer (50 mM HEPES, 1 mM CaCl2, 5 mM MgCl2, 125 mM NaCl, 0.002% NaN3, 1.0% BSA) at room temperature. The beads were spun down, washed once, resuspended in the binding buffer and transferred to a 96-well Isoplate (Wallac, Gaithersburg, Md.). 25 pM of [^125I] IP-10 with tested compounds in a series of titration were added to start the reaction. After 3 hr reaction at room temperature, the amount of [^125I] IP-10 bound to the SPA beads was determined with a Wallac 1450 Microbeta counter.
The Ki values for the various example compounds of the present invention are given in the afore-mentioned Table 1. From these values, it would be apparent to the skilled artisan that the compounds of the invention have excellent utility CXCR3 antagonists.

| SMILES | IC50 (read-out: IC50 value) | IC50 (IC50 rating, read-out: IC50) |
| --- | --- | --- |
| CC[C@H]1CN(c2nc(N)c(-c3nnc(C)o3)nc2Cl)CCN1C1CCN(Cc2ccc(Cl)cc2/C(N)=N\O)CC1 [Compound 1] | 0.2 nM | < 25 nM |
| CC[C@H]1CN(c2nc(N)c(-c3nnc(CO)o3)nc2Cl)CCN1C1CCN(Cc2ccc(Cl)cc2/C(N)=N\O)CC1 [Compound 2] |  | < 25 nM |
| CC[C@H]1CN(c2nc(N)c(-c3nnc(N)o3)nc2Cl)CCN1C1CCN(Cc2ccc(Cl)cc2F)CC1 [Compound 3] |  | < 25 nM |
| CC[C@H]1CN(c2nc(N)c(-c3nnc(C)o3)nc2Cl)CCN1C1CCN(Cc2ccc(Cl)cc2)CC1 [Compound 4] |  | < 25 nM |
| CC[C@H]1CN(c2nc(N)c(-c3nnc(C)o3)nc2Cl)CCN1C1CCN([C@@H](CO)c2ccc(Cl)cc2)CC1 [Compound 5] |  | < 25 nM |
| CC[C@H]1CN(c2nc(N)c(-c3nnc(CO)o3)nc2Cl)CCN1C1CCN([C@@H](CO)c2ccc(Cl)cc2)CC1 [Compound 6] |  | < 25 nM |
| CC[C@H]1CN(c2nc(N)c(-c3nnc(C)o3)nc2Cl)CCN1C1CCN(Cc2ccc(Cl)c(OCCS(C)(=O)=O)c2)CC1 [Compound 7] |  | < 25 nM |
| CC[C@H]1CN(c2nc(N)c(-c3nnc(C)o3)nc2Cl)CCN1C1CCN(Cc2ccc(Cl)cc2C(N)=O)CC1 [Compound 8] |  | < 25 nM |
| CC[C@H]1CN(c2nc(N)c(-c3nnc(N)o3)nc2Cl)CCN1C1CCN(Cc2ccc(C#N)cc2)CC1 [Compound 9] |  | < 25 nM |
| CCNc1nnc(-c2cnc(N3CCN(C4CCN(C(=O)c5ccc(Cl)nc5N)CC4)[C@@H](CC)C3)c(Cl)n2)o1 [Compound 10] |  | < 25 nM |
| CC[C@H]1CN(c2nc(N)c(-c3nnc(NC(C)C)o3)nc2Cl)CCN1C1CCN(C(=O)c2ccc(Cl)nc2N)CC1 [Compound 11] |  | < 25 nM |
| CCCNc1nnc(-c2nc(Cl)c(N3CCN(C4CCN(C(=O)c5ccc(Cl)nc5N)CC4)[C@@H](CC)C3)nc2N)o1 [Compound 12] |  | < 25 nM |
| CCNc1nnc(-c2cnc(N3CCN(C4CCN(C(=O)c5ccc(Cl)nc5N)CC4)[C@@H](CC)C3)c(C)n2)s1 [Compound 13] |  | < 25 nM |
| CCNc1nnc(-c2nc(Cl)c(N3CCN(C4CCN(C(=O)c5ccc(Cl)nc5N)CC4)[C@@H](CC)C3)nc2N)o1 [Compound 14] |  | < 25 nM |
| CC[C@H]1CN(c2nc(N)c(-c3nnc(N)o3)nc2Cl)CCN1C1CCN(Cc2ccc(Cl)nc2)CC1 [Compound 15] |  | < 25 nM |
| CCNc1nnc(-c2cnc(N3CCN(C4CCN(C(=O)c5ccc(Cl)nc5N)CC4)[C@@H](CC)C3)c(C)n2)o1 [Compound 16] |  | < 25 nM |
| CC[C@H]1CN(c2nc(N)c(-c3nnc(N)o3)nc2Cl)CCN1C1CCN(C(=O)c2ccc(Cl)nc2N)CC1 [Compound 17] |  | < 25 nM |
| CCNc1nnc(-c2cnc(N3CCN(C4CCN(C(=O)c5ccc(Cl)nc5N)CC4)[C@@H](CC)C3)c(Cl)n2)s1 [Compound 18] |  | < 25 nM |
| CC[C@H]1CN(c2nc(N)c(-c3nnc(C)o3)nc2Cl)CCN1C1CCN(C(=O)c2cc(F)c(Cl)nc2N)CC1 [Compound 19] |  | < 25 nM |
| CCNc1nnc(-c2nc(Cl)c(N3CCN(C4CCN(C(=O)c5ccc(Cl)cc5)CC4)[C@@H](CC)C3)nc2N)o1 [Compound 20] |  | < 25 nM |
| CC[C@H]1CN(c2ncc(-c3nnc(C)o3)nc2C)CCN1C1CCN(C(=O)c2ccc(Cl)cc2N)CC1 [Compound 21] |  | < 25 nM |
| CC[C@H]1CN(c2nc(N)c(-c3nnc(C)o3)nc2Cl)CCN1C1CCN(C(=O)c2ccc(Cl)nc2N)CC1 [Compound 23] |  | < 25 nM |
| CC[C@H]1CN(c2nc(N)c(C3=NCCN3)nc2Cl)CCN1C1CCN(C(=O)c2ccc(Cl)nc2N)CC1 [Compound 24] |  | < 25 nM |
| CC[C@H]1CN(c2nc(N)c(-c3nnc(CO)o3)nc2Cl)CCN1C1CCN(C(=O)c2ccc(Cl)nc2N)CC1 [Compound 25] |  | < 25 nM |

| SMILES | IC50 (read-out: IC50 value) | IC50 (IC50 rating, read-out: IC50) |
| --- | --- | --- |
| CC[C@H]1CN(c2nc(N)c(-c3nnc(NCC(=O)OC)o3)nc2Cl)CCN1C1CCN(C(=O)c2ccc(Cl)nc2N)CC1 [Compound 26] |  | < 25 nM |
| CC[C@H]1CN(c2ncc(C3=NCCN3)nc2Cl)CCN1C1CCN(C(=O)c2ccc(Cl)nc2N)CC1 [Compound 27] |  | < 25 nM |
| CC[C@H]1CN(c2nc(N)c(-c3nnc(C(C)(C)O)o3)nc2Cl)CCN1C1CCN(Cc2ccc(Cl)cc2)CC1 [Compound 28] |  | < 25 nM |
| CC[C@H]1CN(c2nc(N)c(-c3nnc(N(C)C)o3)nc2Cl)CCN1C1CCN(Cc2ccc(Cl)cc2)CC1 [Compound 29] |  | < 25 nM |
| CC[C@H]1CN(c2nc(N)c(-c3nnc(N)[nH]3)nc2Cl)CCN1C1CCN(C(=O)c2ccc(Cl)nc2N)CC1 [Compound 30] |  | < 25 nM |
| CC[C@H]1CN(c2nc(N)c(-c3nnc(C)o3)nc2Cl)CCN1C1CCN(C(=O)c2cc(F)c(Cl)nc2Cl)CC1 [Compound 31] |  | < 25 nM |
| CC[C@H]1CN(c2ncc(-c3nnc(C)o3)nc2Cl)CCN1C1CCN(C(=O)c2ccc(Cl)cc2)CC1 [Compound 32] |  | < 25 nM |
| CC[C@H]1CN(c2ncc(-c3nnc(C)o3)nc2Cl)CCN1C1CCN(C(=O)c2cc(F)c(Cl)nc2Cl)CC1 [Compound 33] |  | < 25 nM |
| CC[C@H]1CN(c2nc(N)c(-c3nnc(CN)o3)nc2Cl)CCN1C1CCN(C(=O)c2ccc(Cl)nc2N)CC1 [Compound 34] |  | < 25 nM |
| CC[C@H]1CN(c2ncc(-c3nnc(C)o3)nc2C)CCN1C1CCN(C(=O)c2ccc(Cl)nc2N)CC1 [Compound 35] |  | < 25 nM |
| CC[C@H]1CN(c2nc(N)c(-c3nnc(N)o3)nc2Cl)CCN1C1CCN(C(=O)c2ccc(Cl)cc2)CC1 [Compound 36] |  | < 25 nM |
| CC[C@H]1CN(c2ncc(-c3nnc(C)[nH]3)nc2Cl)CCN1C1CCN(C(=O)c2ccc(Cl)nc2N)CC1 [Compound 37] |  | < 25 nM |
| CC[C@H]1CN(c2ncc(-c3nc[nH]n3)nc2C)CCN1C1CCN(C(=O)c2ccc(Cl)nc2N)CC1 [Compound 38] |  | < 25 nM |
| CC[C@H]1CN(c2nc(N)c(-c3nnc(C(N)=O)o3)nc2Cl)CCN1C1CCN(C(=O)c2ccc(Cl)nc2N)CC1 [Compound 40] |  | < 25 nM |
| CC[C@H]1CN(c2nc(N)c(-c3nnc(NCCO)o3)nc2Cl)CCN1C1CCN(C(=O)c2ccc(Cl)nc2N)CC1 [Compound 41] |  | < 25 nM |
| CCNC(=O)Nc1nnc(-c2nc(Cl)c(N3CCN(C4CCN(C(=O)c5ccc(Cl)nc5N)CC4)[C@@H](CC)C3)nc2N)o1 [Compound 42] |  | < 25 nM |
| CC[C@H]1CN(c2nc(N)c(-c3nnc(C)o3)nc2Cl)CCN1C1CCN(C(=O)c2ccc(Cl)cc2)CC1 [Compound 43] |  | < 25 nM |
| CC[C@H]1CN(c2ncc(-c3n[nH]c(N)n3)nc2C)CCN1C1CCN(C(=O)c2ccc(Cl)nc2N)CC1 [Compound 44] |  | < 25 nM |
| CC[C@H]1CN(c2nc(N)c(-c3nnc(CO)o3)nc2Cl)CCN1C1CCN(Cc2ccc(Cl)cc2C#N)CC1 [Compound 45] |  | < 25 nM |
| CC[C@H]1CN(c2nc(N)c(-c3nnc(CNC(=O)C(F)(F)F)o3)nc2Cl)CCN1C1CCN(C(=O)c2ccc(Cl)nc2N)CC1 [Compound 46] |  | < 25 nM |
| CC[C@H]1CN(c2nc(N)c(-c3nnc(CO)o3)nc2Cl)CCN1C1CCN([C@@H](C(=O)OC)c2ccc(Cl)cc2)CC1 [Compound 47] |  | < 25 nM |
| CC[C@H]1CN(c2nc(N)c(-c3nnc(C)o3)nc2Cl)CCN1C1CCN(Cc2ccc(Cl)cc2C#N)CC1 [Compound 48] |  | < 25 nM |
| CC[C@H]1CN(c2ncc(-c3nc[nH]n3)nc2C)CCN1C1CCN(C(=O)c2ccc(Cl)cc2)CC1 [Compound 49] |  | < 25 nM |
